According to PubChem BioAssay (NCI):
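Test compounds were applied to cells in 96-well plates for 48 hours at 5 doses. Here, GI50 denotes the concentration required for 50% inhibition of growth. TGI: concentration producing complete growth inhibition.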

Assays:
Assay in all cases: NCI anticancer screen, dose series, 48 h
786-0 renal = test system: 786-0 renal
A549 NSCLC = test system: A549 NSCLC
ACHN renal = test system: ACHN renal
CCRF-CEM leukemia = test system: CCRF-CEM leukemia
HOP-62 NSCLC = test system: HOP-62 NSCLC
IGROV1 ovarian = test system: IGROV1 ovarian
SF-295 CNS = test system: SF-295 CNS
SK-OV-3 ovarian = test system: SK-OV-3 ovarian
BT-549 breast = test system: BT-549 breast
MDA-MB-435 = test system: MDA-MB-435

Structure (SMILES) | TGI (786-0 renal) [µM] | TGI (A549 NSCLC) [µM] | TGI (ACHN renal) [µM] | TGI (CCRF-CEM leukemia) [µM] | TGI (HOP-62 NSCLC) [µM] | TGI (IGROV1 ovarian) [µM] | TGI (SF-295 CNS) [µM] | TGI (SK-OV-3 ovarian) [µM] | GI50 (786-0 renal) [µM] | GI50 (A549 NSCLC) [µM] | GI50 (ACHN renal) [µM] | GI50 (BT-549 breast) [µM] | TGI (BT-549 breast) [µM] | GI50 (CCRF-CEM leukemia) [µM] | GI50 (HOP-62 NSCLC) [µM] | GI50 (IGROV1 ovarian) [µM] | GI50 (MDA-MB-435) [µM] | TGI (MDA-MB-435) [µM] | GI50 (SK-OV-3 ovarian) [µM] | GI50 (SF-295 CNS) [µM]
CC1(C)COC2C(N(Cc3ccccc3)Cc3ccccc3)C(=O)N21 (stereo not given) | > 100 | > 100 | > 100 | > 100 | > 100 | > 100 | 88.8 | 66.1 |  |  |  |  |  |  |  |  |  |  |  | 
COc1ccc(O)c(C(=O)CCC(=O)O)c1 | > 100 | > 100 | > 100 | > 100 | > 10 | > 100 | > 100 | > 100 |  |  |  |  |  |  |  |  |  |  |  | 
CCC1=CCN(c2cc(C)ccn2)OC1c1ccccc1 (stereo not given) | > 100 | > 100 | > 100 | > 100 | > 100 | > 100 | > 100 | > 100 |  |  |  |  |  |  |  |  |  |  |  | 
COc1ccc(-c2nc(-c3nc4cc(Cl)c(F)cc4[nH]3)c3ccccn23)cc1 | > 100 | > 100 | > 100 | > 100 | > 100 | > 100 |  | > 100 | 8.94 | 4.04 | 7.34 | 4.91 | > 100 | 3.91 | 19.8 | 4.91 | 3.8 | > 100 | > 100 | 
COc1cc2c(c3c1c(=O)c1ccccc1n3C)C=CC(C)(C)O2 | > 100 | > 100 | > 100 | > 100 | > 100 | > 100 | > 100 | > 100 |  |  |  |  |  |  |  |  |  |  |  | 
COc1ccc(Nc2nc(Nc3cc(C)[nH]n3)c3cc(OC)c(OC)cc3n2)cc1 | 3.02 |  | 2.78 |  |  |  | 2.68 | 3.33 | 1.49 |  | 1.45 | 1.4 | 2.9 |  |  |  | 1.23 | 2.58 | 1.83 | 1.33
COC/N=C(\NC#N)NCOC | > 74.6 | > 100 | > 100 | > 100 | > 100 | > 100 | > 100 | > 100 |  |  |  |  |  |  |  |  |  |  |  | 
CO[C@H]1/C=C/O[C@@]2(C)Oc3c(C)c(O)c4c(O)c(c(/C=N/N5CCN(C)CC5)c(O)c4c3C2=O)NC(=O)/C(C)=C\C=C\[C@H](C)[C@H](O)[C@@H](C)[C@@H](O)[C@@H](C)[C@H](OC(C)=O)[C@@H]1C | > 100 | > 100 | > 100 | 81.8 | > 100 | > 100 |  | > 100 |  |  |  |  | > 100 |  |  |  |  | > 100 |  | 
Cn1cc(-c2cc(-c3cn(C)c4ccc(Cl)cc34)[nH]n2)c2cc(Cl)ccc21 | 11.4 | 14.4 | 12.8 | 23.8 | 94.8 | 6.37 | 8.65 | > 100 | 3.41 | 3.24 | 3.23 | 2.03 | 5.24 | 6.4 | 7.98 | 2.55 |  |  | 5.81 | 2.52
O=c1cc(-c2ccccc2)[nH]c2cc(F)cc(F)c12 | > 100 | > 100 | > 100 | > 100 | > 100 | > 100 | > 100 | > 100 |  |  |  |  |  |  |  |  |  |  |  | 
